# According to patent US7528148B2, “Pyrazolo[3,4-B]pyridine compounds, and their use as phosphodiesterase inhibitors” (Glaxo Group Limited, priority 2002, dated 2009):
# Test system: pica feeding response of rats
# Assay: In Vivo Assay 2: rat pica model of emesis
# Details: oral dosing, upper end given as greater than about 50 mg/kg
# Text: In Vivo Assay 2. Rat Pica Model of Emesis
# However, a side effect of some PDE4 inhibitors in many species is emesis. Because many rat models of inflammation are well characterized, they have been used in procedures (see e.g. In Vivo Assay 1 above) to show beneficial anti-inflammatory effects of PDE 4 inhibitors. However rats have no emetic response (they have no vomit reflex), so that the relationship between beneficial anti-inflammatory effects of PDE 4 inhibitors and emesis is difficult to study directly in rats.
# Pica feeding is a behavioural response to illness in rats wherein rats eat non-nutritive substances such as earth or in particular clay (e.g. kaolin) which may help to absorb toxins. Pica feeding can be induced by motion and chemicals (especially chemicals which are emetic in humans), and can be inhibited pharmacologically with drugs that inhibit emesis in humans. The Rat Pica Model, In Vivo Assay 2, can determine the level of pica response of rats to PDE 4 inhibition at pharmacologically relevant doses in parallel to in vivo anti-inflammatory Assays in (a separate set of) rats (e.g. In Vivo Assay 1 above). Anti-inflammatory and pica assays in the same species together can provide data on the “therapeutic index” (TI) in the rat of the compounds/salts of the invention. The Rat TI can for example be calculated as the ratio of a) the potentially-emetic Pica Response ED50 dose from Assay 2 to b) the rat anti-inflammatory ED50 dose (e.g. measured by rat neutrophilia-inhibition in eg In Vivo Assay 1), with larger TI ratios possibly indicating lower emesis at many anti-inflammatory doses. This might allow a choice of a non-emetic or minimal-emetic pharmaceutical dose of the compounds or salts of the invention which has an anti-inflammatory effect. It is recognised however that achieving a low-emetic PDE4 inhibitory compound is not essential to the invention.
# Procedure: On the first day of the experiment, the rats are housed individually in cages without bedding or “enrichment”. The rats are kept off of the cage floor by a wire screen. Pre-weighed food cups containing standard rat chow and clay pellets are placed in the cage. The clay pellets, obtainable from Languna Clay Co, City of Industry, Calif., USA, are the same size and shape as the food pellets. The rats are acclimated to the clay for 72 hours, during which time the cups and food and clay debris from the cage are weighed daily on an electronic balance capable of measuring to the nearest 0.1 grams. By the end of the 72 hour acclimation period the rats generally show no interest in the clay pellets.
# At the end of 72 hours the rats are placed in clean cages and the food cups weighed. Rats that are still consuming clay regularly are removed from the study. […] The food and clay cups and cage debris are weighed the following day and the total clay and food consumed that night by each individual animal is calculated.
# A dose response is calculated by first converting the data into quantal response, where animals are either positive or negative for the pica response. A rat is “pica positive” if it consumes greater than or equal to 0.3 grams of clay […] using logistic regression performed by the Statistica software statistical package. A Pica Response ED50 value in mg per kg of body weight can then be calculated. […]
row,Structure (SMILES),ED50 [mg/kg]
1,"CCn1ncc2c(NC3CCOCC3)c(-c3nnc(C)o3)cnc21 [Example 14, 1-Ethyl-5-(5-methyl-1,3,4-oxadiazol-2-yl)-N-(tetrahydro-2H-pyran-4-yl)-1H-pyrazolo[3,4-b]pyridin-4-amine]",2 to 50
2,"CCn1ncc2c(NC3CCOCC3)c(-c3nnc(C(C)(C)C)o3)cnc21 [Example 17, 5-(S-Tert-butyl-1,3,4-oxadiazol-2-yl)-1-ethyl-N-(tetrahydro-2H-pyran-4-yl)-1H-pyrazolo[3,4-b]pyridin-4-amine]",2 to 50
3,"CCn1ncc2c(NC3CCOCC3)c(-c3nnc(CS(C)(=O)=O)o3)cnc21 [Example 23, 1-Ethyl-5-{5-[(methylsulfonyl)methyl]-1,3,4-oxadiazol-2-yl}-N-(tetrahydro-2H-pyran-4-yl)-1H-pyrazolo[3,4-b]pyridin-4-amine]",2 to 50
4,"CCn1ncc2c(NC3CCOCC3)c(-c3nnc(CN4CCN(C)CC4)o3)cnc21 [Example 35, 1-Ethyl-5-{5-[(4-methylpiperazin-1-yl)methyl]-1,3,4-oxadiazol-2-yl}-N-(tetrahydro-2H-pyran-4-yl)-1H-pyrazolo[3,4-b]pyridin-4-amine]",2 to 50
5,"CCn1ncc2c(NC3CCOCC3)c(-c3nnc(C4CCOCC4)o3)cnc21 [Example 38, 1-Ethyl-N-(tetrahydro-2H-pyran-4-yl)-5-[5-(tetrahydro-2H-pyran-4-yl)-1,3,4-oxadiazol-2-yl]-1H-pyrazolo[3,4-b]pyridin-4-amine]",2 to 50
